Read-outs that look alike come from different tables or passages of the source.

These results are taken from PMC3454463 (2012).

Holding throughout (format): binding
In test [1] the target is T1, MD2 (myeloid differentiation protein 2) (Homo sapiens, UniProt Q9Y6Y9).
T1 sequence (Q9Y6Y9 19-160): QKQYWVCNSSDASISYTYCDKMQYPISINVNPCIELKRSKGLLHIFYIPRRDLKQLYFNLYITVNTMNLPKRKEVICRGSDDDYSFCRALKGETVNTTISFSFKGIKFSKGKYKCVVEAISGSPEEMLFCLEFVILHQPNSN
The test is described as follows: quenching of MD2 intrinsic fluorescence.

Test [2] concerns the target T1, MD2 (myeloid differentiation protein 2). The test is described as follows: Bis-ANS-MD2 complex fluorescence, displaced by.
Test [3] has the same target. The test is described as follows: quenching of MD2 intrinsic fluorescence. The source holds these as a separate data set.

The compound `C=CCN1CC[C@@]23c4c5ccc(O)c4O[C@@H]2C(=O)CC[C@]3(O)[C@@H]1C5` [(+)-naloxone] returned a Kd in test [1] of 16.6 ± 4.7 µM. As to `O=S(=O)(O)c1cccc2c(-c3ccc(Nc4ccccc4)c4c(S(=O)(=O)O)cccc34)ccc(Nc3ccccc3)c12` [Bis-ANS], in test [2], the “Bis-ANS-MD2 complex fluorescence, displaced by (+)-naloxone” value was “(+)-Naloxone decreased Bis-ANS-MD2 complex fluorescence, suggesting that (+)-naloxone replaces Bis-ANS binding to MD2”. For the compound `C=CCN1CC[C@]23c4c5ccc(O)c4O[C@H]2C(=O)CC[C@@]3(O)[C@H]1C5` [(−)-naloxone], in test [3], the Kd came to 17.7 ± 3.2 µM.

For orientation: Kd means a measure of binding affinity in units of concentration. Higher therefore signals weaker binding.
